pEC50: −log10 of the molar value. Like-named read-outs stand apart in the source and are kept apart here.
System: RSV A2
Experiment: RSV antiviral cytopathic effect (CPE) assay in HEp2 cells, MTT readout
Format: cell-based, respiratory syncytial virus
Conditions: HEp2 cells infected with RSV A2, moi ~0.01, 5 days, inhibition of CPE by 50%, read-out: Activity Range (RSV A2 EC50 mean values)
Method: RSV Antiviral Assay Protocol
Compounds of the invention were tested for their antiviral activity against respiratory syncytial virus. Cytopathic effect (CPE) assays were performed essentially as described in the literature (see, for example, Watanabe et al, 1994, J. Virological Methods, 48:257). Serial dilutions of the test compounds were made in 96 well plates. HEp2 cells (1.0×10^4 cells/well) were infected with RSV at a low multiplicity of infection (e.g. RSV A2 at an moi of ˜0.01) and added to plates to assess antiviral activity. Uninfected HEp2 cells were used to assess compound cytotoxicity. Assays were incubated for 5 days at 37° C. in a 5% CO2 atmosphere. The extent of CPE was determined via metabolism of the vital dye 3-(4,5-dimethylthiaxol-2-yl)-2,5-diphenyltetrazolium bromide (MTT). MTT (1 mg/ml) was added to each well and plates incubated for 2 hours incubation at 37° C. Wells were aspirated, iso-propanol (200 μL) was added and absorbance values read at 540/650 nm. Compound concentrations that inhibited CPE by 50% (EC50) and developed cytotoxicity (CC50) were calculated using non-linear regression analysis.
In the inventors' experience, replicate EC50 values usually fall within three standard deviations of the mean.

[1] = human respiratory syncytial virus, HEp-2, 120 h

Compound | pEC50 | pEC50 [1]
11a-(4-fluorophenyl)-1-(furan-2-ylacetyl)-2,3,11,11a-tetrahydro-1H,5H-imidazo[1,2-a]thieno[3′,2′:4,5]pyrrolo[1,2-d]pyrazin-5-one [Compound 22] | < 5.00 | –
COc1ccc(C23Cn4c(cc5ccsc54)C(=O)N2CCN3C(=O)c2conc2C)cc1 (stereo not drawn) [Compound 1, 11a-(4-methoxyphenyl)-1-[(3-methyl-1,2-oxazol-4-yl)carbonyl]-2,3,11,11a-tetrahydro-1H,5H-imidazo[1,2-a]thieno[3′,2′:4,5]pyrrolo[1,2-d]pyrazin-5-one] | – | ≥ 7.31
COc1ccc(C23Cn4c(cc5[nH]c(C)nc54)C(=O)N2CCN3C(=O)c2conc2C)cc1 (stereo not drawn) [Compound 2, 5a-(4-methoxyphenyl)-2-methyl-6-[(3-methyl-1,2-oxazol-4-yl)carbonyl]-5a,6,7,8-tetrahydro-5H-imidazo[1,2-a]imidazo[4′,5′:4,5]pyrrolo[1,2-d]pyrazin-10(1H)-one] | – | ≥ 7.31
COc1ccc(C23Cn4c(cc5occc54)C(=O)N2CCN3C(=O)c2conc2C)cc1 (stereo not drawn) [Compound 3, 5a-(4-methoxyphenyl)-6-[(3-methyl-1,2-oxazol-4-yl)carbonyl]-5a,6,7,8-tetrahydro-5H,10H-furo[2′,3′:4,5]pyrrolo[1,2-a]imidazo[1,2-d]pyrazin-10-one] | – | 7.00 to 7.30
COc1ccc(C23Cn4c(cc5ccccc54)C(=O)N2CCN3C(=O)c2conc2C)cc1 (stereo not drawn) [Compound 4, 12a-(4-methoxyphenyl)-1-[(3-methyl-1,2-oxazol-4-yl)carbonyl]-2,3,12,12a-tetrahydro-1H,5H-imidazo[1′,2′:4,5]pyrazino[1,2-a]indol-5-one] | – | ≥ 7.31
COc1ccc(C23Cn4c(cc5sccc54)C(=O)N2CCN3C(=O)c2conc2C)cc1 (stereo not drawn) [Compound 5, 5a-(4-methoxyphenyl)-6-[(3-methyl-1,2-oxazol-4-yl)carbonyl]-5a,6,7,8-tetrahydro-5H,10H-imidazo[1,2-a]thieno[2′,3′:4,5]pyrrolo[1,2-d]pyrazin-10-one] | – | 6.30 to 7.00
Cc1nocc1C(=O)N1CCN2C(=O)c3cc4ccsc4n3CC12c1ccc(F)cc1 (stereo not drawn) [Compound 6, 11a-(4-fluorophenyl)-1-[(3-methyl-1,2-oxazol-4-yl)carbonyl]-2,3,11,11a-tetrahydro-1H,5H-imidazo[1,2-a]thieno[3′,2′:4,5]pyrrolo[1,2-d]pyrazin-5-one] | – | ≥ 7.31
Cc1ccc(C23Cn4c(cc5ccsc54)C(=O)N2CCN3C(=O)c2conc2C)cc1 (stereo not drawn) [Compound 7, 1-[(3-methyl-1,2-oxazol-4-yl)carbonyl]-11a-(4-methylphenyl)-2,3,11,11 a-tetrahydro-1H,5H-imidazo[1,2-a]thieno[3′,2′:4,5]pyrrolo[1,2-d]pyrazin-5-one] | – | ≥ 7.31
COc1ccc(C23Cn4c(cc5cccnc54)C(=O)N2CCN3C(=O)c2conc2C)cc1 (stereo not drawn) [Compound 8, 12a-(4-methoxyphenyl)-1-[(3-methyl-1,2-oxazol-4-yl)carbonyl]-2,3,12,12a-tetrahydro-1H,5H-imidazo[1,2-a]pyrido[3′,2′:4,5]pyrrolo[1,2-d]pyrazin-5-one] | – | ≥ 7.31
COc1ccc(C23Cn4c(cc5ncccc54)C(=O)N2CCN3C(=O)c2conc2C)cc1 (stereo not drawn) [Compound 9, 12a-(4-methoxyphenyl)-1-[(3-methyl-1,2-oxazol-4-yl)carbonyl]-2,3,12,12a-tetrahydro-1H,5H-imidazo[1,2-a]pyrido[2′,3′:4,5]pyrrolo[1,2-d]pyrazin-5-one] | – | 6.30 to 7.00
Cc1ccc(C23Cn4c(cc5cccnc54)C(=O)N2CCN3C(=O)c2conc2C)cc1 (stereo not drawn) [Compound 10, 1-[(3-methyl-1,2-oxazol-4-yl)carbonyl]-12a-(4-methylphenyl)-2,3,12,12a-tetrahydro-1H,5H-imidazo[1,2-a]pyrido[3′,2′:4,5]pyrrolo[1,2-d]pyrazin-5-one] | – | ≥ 7.31
Cc1nocc1C(=O)N1CCN2C(=O)c3cc4cccnc4n3CC12c1ccc(F)cc1 (stereo not drawn) [Compound 11, 12a-(4-fluorophenyl)-1-[(3-methyl-1,2-oxazol-4-yl)carbonyl]-2,3,12,12a-tetrahydro-1H,5H-imidazo[1,2-a]pyrido[3′,2′:4,5]pyrrolo[1,2-d]pyrazin-5-one] | – | ≥ 7.31
Cc1nocc1C(=O)N1CCN2C(=O)c3cc4ncccc4n3CC12c1ccc(F)cc1 (stereo not drawn) [Compound 12, 12a-(4-fluorophenyl)-1-[(3-methyl-1,2-oxazol-4-yl)carbonyl]-2,3,12,12a-tetrahydro-1H,5H-imidazo[1,2-a]pyrido[2′,3′:4,5]pyrrolo[1,2-d]pyrazin-5-one] | – | 6.30 to 7.00
Cc1ccc(C23Cn4c(cc5ccsc54)C(=O)N2CCN3C(=O)c2conc2C)cn1 (stereo not drawn) [Compound 13, 1-[(3-methyl-1,2-oxazol-4-yl)carbonyl]-11a-(6-methylpyridin-3-yl)-2,3,11,11a-tetrahydro-1H,5H-imidazo[1,2-a]thieno[3′,2′:4,5]pyrrolo[1,2-d]pyrazin-5-one] | – | ≥ 7.31
O=C1c2cc3ccsc3n2CC2(c3ccc(F)cc3)N1CCN2C(=O)C1CCCCC1 (stereo not drawn) [Compound 14, 1-(cyclohexylcarbonyl)-11a-(4-fluorophenyl)-2,3,11,11a-tetrahydro-1H,5H-imidazo[1,2-a]thieno[3′,2′:4,5]pyrrolo[1,2-d]pyrazin-5-one] | – | < 5.00
O=C(c1ccco1)N1CCN2C(=O)c3cc4ccsc4n3CC12c1ccc(F)cc1 (stereo not drawn) [Compound 15, 11a-(4-fluorophenyl)-1-(furan-2-ylcarbonyl)-2,3,11,11a-tetrahydro-1H,5H-imidazo[1,2-a]thieno[3′,2′:4,5]pyrrolo[1,2-d]pyrazin-5-one] | – | < 5.00
O=C1c2cc3ccsc3n2CC2(c3ccc(F)cc3)N1CCN2C(=O)C1CC1 (stereo not drawn) [Compound 16, 1-(cyclopropylcarbonyl)-11a-(4-fluorophenyl)-2,3,11,11a-tetrahydro-1H,5H-imidazo[1,2-a]thieno[3′,2′:4,5]pyrrolo[1,2-d]pyrazin-5-one] | – | < 5.00
CC(C)C(=O)N1CCN2C(=O)c3cc4ccsc4n3CC21c1ccc(F)cc1 (stereo not drawn) [Compound 17, 11a-(4-fluorophenyl)-1-(2-methylpropanoyl)-2,3,11,11a-tetrahydro-1H,5H-imidazo[1,2-a]thieno[3′,2′:4,5]pyrrolo[1,2-d]pyrazin-5-one] | – | < 5.00
Cc1cc(C(=O)N2CCN3C(=O)c4cc5ccsc5n4CC23c2ccc(F)cc2)no1 (stereo not drawn) [Compound 18, 11a-(4-fluorophenyl)-1-[(5-methyl-1,2-oxazol-3-yl)carbonyl]-2,3,11,11a-tetrahydro-1H,5H-imidazo[1,2-a]thieno[3′,2′:4,5]pyrrolo[1,2-d]pyrazin-5-one] | – | < 5.00
O=C(CC1CCCCC1)N1CCN2C(=O)c3cc4ccsc4n3CC12c1ccc(F)cc1 (stereo not drawn) [Compound 19, l-(cyclohexylacetyl)-11a-(4-fluorophenyl)-2,3,11,11a-tetrahydro-1H,5H-imidazo[1,2-a]thieno[3′,2′:4,5]pyrrolo[1,2-d]pyrazin-5-one] | – | < 5.00
Cn1nc(C(C)(C)C)cc1C(=O)N1CCN2C(=O)c3cc4ccsc4n3CC12c1ccc(F)cc1 (stereo not drawn) [Compound 20, 1-[(3-tert-butyl-1-methyl-1H-pyrazol-5-yl)carbonyl]-11a-(4-fluorophenyl)-2,3,11,11a-tetrahydro-1H,5H-imidazo[1,2-a]thieno[3′,2′:4,5]pyrrolo[1,2-d]pyrazin-5-one] | – | < 5.00
Cc1ocnc1C(=O)N1CCN2C(=O)c3cc4ccsc4n3CC12c1ccc(F)cc1 (stereo not drawn) [Compound 21, 11a-(4-fluorophenyl)-1-[(5-methyl-1,3-oxazol-4-yl)carbonyl]-2,3,11,11a-tetrahydro-1H,5H-imidazo[1,2-a]thieno[3′,2′:4,5]pyrrolo[1,2-d]pyrazin-5-one] | – | 6.30 to 7.00
O=C(NCc1ccccc1)N1CCN2C(=O)c3cc4ccsc4n3CC12c1ccc(F)cc1 (stereo not drawn) [Compound 23, N-benzyl-11a-(4-fluorophenyl)-5-oxo-2,3,11,11a-tetrahydro-1H,5H-imidazo[1,2-a]thieno[3′,2′:4,5]pyrrolo[1,2-d]pyrazine-1-carboxamide] | – | < 5.00
O=C(NC1CCCCC1)N1CCN2C(=O)c3cc4ccsc4n3CC12c1ccc(F)cc1 (stereo not drawn) [Compound 24, N-cyclohexyl-11a-(4-fluorophenyl)-5-oxo-2,3,11,11a-tetrahydro-1H,5H-imidazo[1,2-a]thieno[3′,2′:4,5]pyrrolo[1,2-d]pyrazine-1-carboxamide] | – | < 5.00
O=C1c2cc3ccsc3n2CC2(c3ccc(F)cc3)N1CCN2S(=O)(=O)c1ccccc1 (stereo not drawn) [Compound 25, 11a-(4-fluorophenyl)-1-(phenylsulfonyl)-2,3,11,11a-tetrahydro-1H,5H-imidazo[1,2-a]thieno[3′,2′:4,5]pyrrolo[1,2-d]pyrazin-5-one] | – | < 5.00
O=C1c2cc3ccsc3n2CC2(c3ccc(F)cc3)N1CCN2S(=O)(=O)Cc1ccccc1 (stereo not drawn) [Compound 26, 1-(benzylsulfonyl)-11a-(4-fluorophenyl)-2,3,11,11a-tetrahydro-1H,5H-imidazo[1,2-a]thieno[3′,2′:4,5]pyrrolo[1,2-d]pyrazin-5-one] | – | < 5.00
O=C1c2cc3ccsc3n2CC2(c3ccc(F)cc3)N1CCN2S(=O)(=O)c1ccc([N+](=O)[O-])cc1 (stereo not drawn) [Compound 27, 11a-(4-fluorophenyl)-1-[(4-nitrophenyl)sulfonyl]-2,3,11,11a-tetrahydro-1H,5H-imidazo[1,2-a]thieno[3′,2′:4,5]pyrrolo[1,2-d]pyrazin-5-one] | – | 5.00 to 6.30

From US9359377B2, “Substituted imidazo[1,2-a]imidazo[4′,5′:4,5]pyrrolo[1,2-d]pyrazines for treating respiratory syncytial virus infections” (Biota Scientific Management Pty Ltd., priority 2011, dated 2016)
